Laboratory results published in patent publication US20220205982A1 (CHILDREN'S HOSPITAL MEDICAL CENTER, priority 2019, published 2022).
Where “and” joins values, the source holds several entries; their conditions need not be identical. Identical values can stand only once. Like-named read-outs stand apart in the source and are kept apart here.

Assay: Melphalan test dose and full dose pharmacokinetics in patients undergoing RIC allogeneic HCT for non-malignant disorders (Bayesian analysis of plasma concentrations)
Type: in vivo, human
Conditions: for AUC: human, plasma, intravenous; for Distribution of AUC (h * μg/mL): 3.5-≤6.5 / Distribution of AUC (h * μg/mL): <3.5 / Distribution of AUC (h * μg/mL): >6.5: share of transplants
Procedure: Patients undergoing allogeneic HCT for non-malignant disorders with a uniform RIC regimen that included alemtuzumab, fludarabine and melphalan were enrolled in this study. Full standard dose of melphalan was set as follows: • 140 mg/m^2 in patients having a body weight >10 kg, • 4.7 mg/kg in patients having a body weight <10 kg, and • 70 mg/m^2 in one patient with a radio sensitivity disorder.
The patients were given a test dose of melphalan (10% of the standard full dose) prior to start of their preparative regimen. Test dose of 10% of the full standard dose was determined to be the lowest dose level that would be measurable for a sufficiently long time interval (0-4h) to allow reliable AUC estimation. Accordingly, the test doses used in this study were 14 mg/m^2, 7 mg/m^2 and 0.47 mg/kg for patients having the standard full doses of 140 mg/m^2, 70 mg/m^2 and 4.7 mg/kg, respectively.
Blood samples were obtained for PK measurement after the administration of test dose and the full standard dose of melphalan. A total of 10 blood samples were obtained around each dose of melphalan: at baseline (5-10 min prior to start of the melphalan infusion of) and then approximately at 5 min, 15 min, 30 min, 45 min, 60 min, 2 hour, 2.5, 4, and 6 hours after the end of the melphalan infusion. Samples were collected on ice and transported to the institution's mass spectrometry laboratory for instant analysis by PS-MS/MS and conventional LC-MS/MS. Patient data collected for analysis included baseline organ function, presence of oral and gastrointestinal mucositis, renal and liver dysfunction including VOD, initial donor chimerism, graft rejection, and acute and chronic GVHD (aGVHD and cGVHD). The Common Terminology Criteria for Adverse Events (CTCAE) version 4.0 was used to evaluate adverse events. Acute and chronic GVHD were assessed by standardized published criteria. See, e.g., Glucksberg H, et al. Transplantation. 1974; 18:295-304 and Filipovich A H, et al. Biol Blood Marrow Transplant. 2005; 11:945-956. Interim analyses were completed after enrollment of 5 patients and 10 patients respectively to validate data following 25% and 50% of intended total patient enrollment. The AUC range that led to full donor chimerism without excess toxicity in majority of patients was selected to be the desired target AUC for full dose adjustment. In patients with baseline impaired organ function, personalized full dose melphalan was adjusted to limit toxicity if test dose PK predicted standard full dose AUC was higher than the desired target AUC range.
Melphalan levels were measured by validated PS-MS/MS and LC-MS\MS methods (Mirkou A, etc., J Chromatogr B Analyt Technol Biomed Life Sci. 2009; 877:3089-3096). For the PS-MS/MS method, all samples were analyzed using an automated Paper Spray ion source (Prosolia, Inc. Indianapolis, Ind.) interfaced with a TSQ Quantum Ultra mass spectrometer (Thermo Scientific, San Jose, Calif.) operated in selected reaction monitoring (SRM) mode. XCalibur software was used to control the MS and to process data. Specific precursor/product ions were simultaneously monitored for melphalan and its stable isotopically-labelled internal standard (D8-melphalan) by collision-induced dissociation (CID). Blood samples were prepared by spiking known amounts of melphalan standards and the internal standard into drug free human blood to establish a calibration curve and quality control samples. A small amount of patient's blood […] equilibrated with D8-melphalan solution was deposited on the Paper Spray cartridge and dried. A small volume of solvent optimized to efficiently extract the drug was applied to the paper. A stepwise high voltage (3-5 kV) was then applied inducing an electrospray ionization at the tip of the paper; the solvent evaporates from the droplets generating gas phase ions of the analyte, which then can be detected by a mass spectrometer. […]

[1] = a 4-month infant, normal renal and liver function for age
[2] = median and range, 16 patients with normal organ function
[3] = median and range, 17 patients who received standard full dose
[4] = median and range, patients <10 kg, normal organ function, n=5, dose 0.47 mg/kg, 0.47 mg/kg
[5] = median and range, patients >10 kg, normal organ function, n=11, dose 14 mg/m^2
[6] = median and range, six patients (7 transplants) with impaired organ function, adjusted full dose
[7] = median, PK-adjusted full dose, N = 6 (7)

SMILES: N[C@@H](Cc1ccc(N(CCCl)CCCl)cc1)C(=O)O [melphalan, 4-[Bis(2-chloroethyl)amino]-L-phenylalanine]
- test dose clearance [1]: 15.7 L/h/70 kg
- test dose predicted full dose AUC [1]: 11.1 µg·h/mL
- AUC (0.44 mg/kg, sixth patient, initial HCT, full dose 0.44 mg/kg (9.3% of standard dose), read-out: AUC achieved): 1100 ng·h/mL
- AUC (0.47 mg/kg, median and range, patients <10 kg, normal organ function, n=5, dose 0.47 mg/kg, read-out: test dose AUC): 560 ng·h/mL
- AUC (1.2 mg/kg, sixth patient, second HCT, full dose 1.2 mg/kg (25.5% of standard dose), read-out: actual observed AUC): 3900 ng·h/mL
- AUC (4.7 mg/kg, infant who developed VOD, read-out: full dose melphalan AUC): 6900 ng·h/mL
- AUC (4.7 mg/kg, median and range, patients <10 kg, standard dose 4.7 mg/kg, n=6, read-out: full dose AUC): 4800 ng·h/mL
- AUC (14 mg/m2, median and range, patients >10 kg, normal organ function, n=11, dose 14 mg/m^2, read-out: test dose AUC): 520 ng·h/mL
- AUC (70 mg/m^2, patient with VOD and diffuse alveolar hemorrhage, ataxia telangiectasia, read-out: full dose melphalan AUC): 5000 ng·h/mL
- AUC (140 mg/m2, median and range, patients >10 kg, standard dose 140 mg/m2, n=11, read-out: full dose AUC): 5500 ng·h/mL
- AUC (140 mg/m2, patient with grade 4 mucositis and gastrointestinal bleeding, read-out: full dose AUC (highest melphalan exposure)): 9500 ng·h/mL
- AUC (five patients, adjusted full dose 29% to 70% of standard dose, read-out: actual observed AUC with the adjusted dose): 3600 to 5400 ng·h/mL
- AUC (median and range, 16 patients with normal organ function, read-out: test dose AUC): 550 ng·h/mL
- AUC (median and range, 17 patients who received standard full dose, read-out: full dose AUC): 5500 ng·h/mL
- AUC (median and range, six patients (7 transplants) with impaired organ function, adjusted full dose, read-out: test dose AUC): 840 ng·h/mL
- AUC (median in the 12/17 (70.6%) patients with AUC between 3.5 and 6.5, read-out: full dose AUC): 5200 ng·h/mL
- AUC (median, PK-adjusted full dose, N = 6 (7), read-out: Full dose AUC): 3900 ng·h/mL
- AUC (median, PK-adjusted full dose, N = 6 (7), read-out: Test dose AUC): 840 ng·h/mL
- AUC (median, Standard full dose, N = 16 (16), read-out: Test dose AUC): 550 ng·h/mL
- AUC (median, Standard full dose, N = 17 (17), read-out: Full dose AUC): 5500 ng·h/mL
- AUC (median, Total, N = 22 (23), read-out: Test dose AUC): 590 ng·h/mL
- AUC (median, Total, N = 23 (24), read-out: Full dose AUC): 5000 ng·h/mL
- AUC (patient with normal organ function who developed grade 4 gastrointestinal mucositis, read-out: full dose AUC): 9500 ng·h/mL
- AUC (patients with impaired organ function, adjusted full dose, read-out: observed AUC based on the test dose PK guided adjustment): 3900 ± 1400 ng·h/mL
- AUC (full dose melphalan, RIC HCT for non-malignant disorders, read-out: AUC range well tolerated without excess toxicity and sufficient to facilitate engraftment with full donor chimerism): 3500 to 6500 ng·h/mL
- FCLstd (body weight normalized clearance by allometric scaling) (individual patients, full dose): 27.4 L/h/70 kg and 46.9 L/h/70 kg and 43.1 L/h/70 kg and 66.8 L/h/70 kg and 30.2 L/h/70 kg and 59.4 L/h/70 kg and 62.8 L/h/70 kg and 38.9 L/h/70 kg and 18.6 L/h/70 kg and 38.3 L/h/70 kg and 42.7 L/h/70 kg and 18.8 L/h/70 kg and 33.9 L/h/70 kg and 38.0 L/h/70 kg and 29.4 L/h/70 kg and 15.1 L/h/70 kg and 25.0 L/h/70 kg and 12.3 L/h/70 kg and 43.5 L/h/70 kg and 36.9 L/h/70 kg and 19.7 L/h/70 kg and 50.6 L/h/70 kg and 34.5 L/h/70 kg
- Predicted FAUC (test dose PK evaluation) (individual patients, full dose AUC predicted from test dose PK): 2.9 mg · h/L and 6.5 mg · h/L and 5.9 mg · h/L and 5.1 mg · h/L and 5.2 mg · h/L (3×) and 5.7 mg · h/L (2×) and 14.0 mg · h/L and 14.5 mg · h/L and 7.2 mg · h/L and 5.6 mg · h/L and 4.8 mg · h/L and 6.1 mg · h/L and 5.5 mg · h/L and 11.6 mg · h/L and 11.1 mg · h/L and 16.8 mg · h/L and 7.1 mg · h/L and 13.8 mg · h/L and 4.4 mg · h/L and 7.4 mg · h/L
- TCLstd (test dose body weight normalized clearance by allometric scaling) (individual patients, test dose): 47.3 L/h/70 kg and 44.0 L/h/70 kg and 38.8 L/h/70 kg and 56.2 L/h/70 kg and 52.2 L/h/70 kg and 47.8 L/h/70 kg and 49.5 L/h/70 kg and 12.1 L/h/70 kg and 45.2 L/h/70 kg and 18.5 L/h/70 kg and 33.1 L/h/70 kg and 27.5 L/h/70 kg and 33.9 L/h/70 kg and 27.0 L/h/70 kg and 32.3 L/h/70 kg and 13.6 L/h/70 kg and 15.7 L/h/70 kg and 11.3 L/h/70 kg and 35.9 L/h/70 kg and 49.6 L/h/70 kg and 19.2 L/h/70 kg and 67.1 L/h/70 kg and 32.8 L/h/70 kg
- predicted AUC for standard full dose melphalan [2]: 2.9 to 11.1 µg·h/mL and 5.5 µg·h/mL
- test dose AUC [2]: 0.29 to 1.1 µg·h/mL
- full dose AUC [3]: 3.0 to 9.5 µg·h/mL
- full dose clearance [3]: 38.3 L/h/70 kg and 25.0-66.8 L/h/70 kg
- test dose AUC [4]: 0.48 to 1.11 µg·h/mL
- test dose clearance [4]: 27.6 L/hr./70 kg and 15.7-34.0 L/hr./70 kg
- full dose AUC (median and range, patients <10 kg, standard dose 4.7 mg/kg, n=6, 4.7 mg/kg): 3.0 to 6.9 µg·h/mL
- test dose AUC [5]: 0.29 to 0.72 µg·h/mL
- test dose clearance [5]: 47.8 L/h/70 kg and 33.1-67.2 L/h/70 kg
- full dose AUC (median and range, patients >10 kg, standard dose 140 mg/m2, n=11): 4.1 to 9.5 µg·h/mL
- test dose PK predicted AUC for standard full dose (median and range, six patients (7 transplants) with impaired organ function): 13.8 µg·h/mL and 11.1 to 16.4 µg·h/mL
- test dose AUC [6]: 0.7 to 1.45 µg·h/mL
- test dose clearance [6]: 18.5 L/hr./70 kg and 11.3-35.9 L/hr./70 kg
- Test dose PK predicted full close AUC (median, PK-adjusted full dose): 13.8 µg·h/mL
- Full dose CL [7]: 18.8 L/h/70 kg
- Test dose CL [7]: 45.2 L/h/70 kg
- Test dose PK predicted full close AUC (median, Standard full dose): 5.7 µg·h/mL
- Test dose CL (median, Standard full dose, N = 16 (16)): 18.5 L/h/70 kg
- Full dose CL (median, Standard full dose, N = 17 (17)): 38.3 L/h/70 kg
- Test dose PK predicted full close AUC (median, Total): 5.9 µg·h/mL
- Test dose CL (median, Total, N = 22 (23)): 33.9 L/h/70 kg
- Full dose CL (median, Total, N = 23 (24)): 37.4 L/h/70 kg
- full dose AUC if given standard full dose (patients with impaired organ function, predicted from test dose PK): 11.0 ± 3.6 µg·h/mL
- Distribution of AUC (h * μg/mL): 3.5-≤6.5 (PK-adjusted full dose): 85.7%
- Distribution of AUC (h * μg/mL): <3.5 (PK-adjusted full dose): 14.3%
- Distribution of AUC (h * μg/mL): >6.5 (PK-adjusted full dose): 0.0%
- Distribution of AUC (h * μg/mL): 3.5-≤6.5 (Standard full dose): 70.6%
- Distribution of AUC (h * μg/mL): <3.5 (Standard full dose): 5.9%
- Distribution of AUC (h * μg/mL): >6.5 (Standard full dose): 23.5%
- Distribution of AUC (h * μg/mL): 3.5-≤6.5 (Total): 75.0%
- Distribution of AUC (h * μg/mL): <3.5 (Total): 8.3%
- Distribution of AUC (h * μg/mL): >6.5 (Total): 16.7%
